For assay [1], the system named is four human ATC cell lines. As to the kind of experiment: Cellular screening in four human ATC cell lines. The format is cell-based.
Another assay has as its system RI1. As to the kind of experiment: MTT proliferation assay, B-cell lymphoma cell line. The format is cell-based. As to conditions: Ri-1; RI1, 72 h of drug incubation. The procedure: (§1) All the above compounds were tested in vitro for their anticancer activity against a panel of eight B-cell lymphoma cell lines by MTT proliferation assay. The tested cell lines belonging to mantle cell lymphoma (MCL: REC1, Z138), activated B-cell diffuse large B-cell lymphoma (ABC-DLBCL: R11, HBL1, U2932, TMD8), germinal center B-cell diffuse large B-cell lymphoma (GCB-DLBCL: SU-DHL-10, FARAGE) subtypes. In overall, MCL cell lines present Cyclin D1 overexpression, while ABC- and GCB-DLBCL's proliferation is BCR and BCL6/HDACs driven, respectively. At the RNA level, all tested lymphoma cell lines were characterized by an overexpression of 14-3-3 zeta as reported for B-cell lymphomas resistant to chemotherapeutic regimen.
A general note: Formazan colour is commonly taken as a measure of viable cells.

The next assay concerns HBL1. Briefly: MTT proliferation assay, B-cell lymphoma cell line. The format is cell-based. The settings on record: HBL1, 72 h of drug incubation. The procedure:
as §1

The next assay deals with TMD8. Briefly: MTT proliferation assay, B-cell lymphoma cell line. The assay is classed as cell-based. As to conditions: Homo sapiens; TMD8, 72 h of drug incubation. How it is done: as §1
A further assay relates to U2932. As to the kind of experiment: MTT proliferation assay, B-cell lymphoma cell line. As to conditions: Homo sapiens; U2932, 72 h of drug incubation. The assay is classed as cell-based. How it is done:
as §1

The test system of another assay is SUDHL10. Briefly: MTT proliferation assay, B-cell lymphoma cell line. The format is cell-based. The settings on record: Homo sapiens, SU-DHL10; SUDHL10, 72 h of drug incubation. The procedure:
as §1

A further assay relates to REC1. As to the kind of experiment: MTT proliferation assay, B-cell lymphoma cell line. The assay is classed as cell-based. As to conditions: Homo sapiens; REC1, 72 h of drug incubation. How it is done: as §1
In another assay the test system is Z138. Briefly: MTT proliferation assay, B-cell lymphoma cell line. As to conditions: Homo sapiens, Z-138; Z138, 72 h of drug incubation. The format is cell-based. The procedure: as §1
The subject of another assay is FARAGE. As to the kind of experiment: MTT proliferation assay, B-cell lymphoma cell line. As to conditions: 72 h of drug incubation. The format is cell-based. How it is done:
as §1

For the next assay, the system named is 8505c. Briefly: MTT assay, ATC cell line, fixed concentrations. The format is cell-based. The settings on record: Homo sapiens, 48 h, read-out: % of proliferating cells; for viability at 0.02 µM: 20 nM; for viability at 0.1 µM: 100 nM; for viability at 20 µM: 20000 nM. The procedure: (§2) The compounds FC91, SB14, SB17, SB18, SB19, SB20, SB21 and FC85 were employed in a cellular screening at fixed concentration ranging from 20 nM to 20 μM.
(§3) Table 2: Four human thyroid cancer cell lines were incubated with FC91, SB14, SB17, SB18, SB19, SB20A, SB20b, SB21 and FC85 for 48 h at fixed concentration of 20,100 and 20000 nM and then assayed with MTT. Data are reported as % of proliferating cells.

Another assay has as its system Nthory. Briefly: MTT assay, ATC cell line, fixed concentrations. The format is cell-based. As to conditions: Homo sapiens, 48 h, read-out: % of proliferating cells; for viability at 0.02 µM: 20 nM; for viability at 0.1 µM: 100 nM; for viability at 20 µM: 20000 nM. The procedure: as §2, §3
In a further assay the test system is SW1736. Briefly: MTT assay, ATC cell line, fixed concentrations. The format is cell-based. The settings on record: Homo sapiens, SW-1736, 48 h, read-out: % of proliferating cells; for viability at 0.02 µM: SW1736, 20 nM; for viability at 0.1 µM: SW1736, 100 nM; for viability at 20 µM: SW1736, 20000 nM. How it is done: as §2, §3
The next assay concerns FRO. Briefly: MTT assay, ATC cell line, fixed concentrations. The format is cell-based. The settings on record: Homo sapiens, 48 h, read-out: % of proliferating cells; for viability at 0.02 µM: 20 nM; for viability at 0.1 µM: 100 nM; for viability at 20 µM: 20000 nM. The procedure:
as §2, §3

The subject of assay [2] is eight B-cell lymphoma cell lines. As to the kind of experiment: MTT proliferation assay, panel of eight B-cell lymphoma cell lines. As to conditions: for IC50: B-cell, read-out: IC50 in all eight lymphoma cell lines; for activity in lymphoma cell lines: eight lymphoma cell lines. The assay is classed as cell-based. How it is done: as §1
In the next assay the test system is glioblastoma cell. The settings on record: combined with temozolomide; cited from earlier work.
[3] abbreviates: human ATC cell lines, read-out: IC50 values in ATC cell lines.
[4] abbreviates: Homo sapiens, in one (i.e. SB17) to four (i.e. SB20b) cell lines of anaplastic thyroid cancer, read-out: IC50 value in ATC cell lines.

Read-outs that look alike come from different tables or passages of the source. Where only a bound is given, the exact number is not on record here.

What is called IC50 is the concentration that inhibits the measured activity by half. As to `Cc1ccc(S(=O)(=O)Nc2ccc3c(c2)C(=Cc2nccn2C)C(=O)N3)cc1` (stereo in doubt) [FC91, N-{(3E)-3-[(1-methyl-1H-imidazol-2-yl)methylidene]-2-oxo-2,3-dihydro-1H-indol-5-yl}-4-methylbenzenesulfonamide], the half-inhibitory concentration (IC50) in assay [1] (setting [3]) is 100 to 200 nM; in the assay with RI1, 30 nM; in the assay on HBL1 it was 40 nM; in the assay with TMD8, 50 nM; in the assay on U2932, 50 nM; in the assay on SUDHL10, 50 nM. In addition, the IC50 was 50 nM in the assay with REC1, 50 nM with Z138, 25 nM in the assay on FARAGE and below 1000 nM in [2]. In addition, the viability at 0.02 µM came to 79% in the assay on 8505c, 84% with Nthory, 73% with SW1736 and 63% in the assay with FRO. For the same compound, the viability at 0.1 µM was found to be 38% in the assay on 8505c, 55% in the assay on Nthory, 52% in the assay on SW1736 and 46% in the assay with FRO. Further, the viability at 20 µM amounted to 48% in the assay on 8505c, 47% in the assay with Nthory, 60% in the assay on SW1736 and 55% with FRO. Moreover, the “IC50 in eight different lymphoma cell lines” value in assay [2] (eight different lymphoma cell lines) was “nanomolar range”.

For the compound `Cc1ccc(S(=O)(=O)Nc2ccc3c(c2)/C(=C/c2cnc[nH]2)C(=O)N3)cc1` [FC85, N-[(3Z)-3-(1H-imidazol-5-ylmethylidene)-2-oxo-2,3-dihydro-1H-indol-5-yl]-4-methylbenzenesulfonamide], the IC50 in assay [1] (setting [4]) was 100 to 20000 nM; in the assay on RI1, 500 nM; in the assay with HBL1, 600 nM; in the assay with TMD8, 600 nM; in the assay with U2932, 500 nM; with SUDHL10, 600 nM. For the same compound, the IC50 is 1000 nM in the assay on REC1, 500 nM in the assay on Z138, 500 nM in the assay on FARAGE and below 1000 nM in assay [2]. Moreover, the “inhibition of glioblastoma cell viability, combination vs single treatment” value with glioblastoma cell is listed as “significant increase in inhibition”. Also, the viability at 0.02 µM in the assay with 8505c worked out at 80%; with Nthory, 78%; in the assay with SW1736 it was 90%; in the assay on FRO it was 75%. Besides, the viability at 0.1 µM was 99% in the assay with 8505c, 83% with Nthory, 67% in the assay on SW1736 and 98% with FRO. Moreover, the viability at 20 µM in the assay on 8505c was determined as 36%; in the assay with Nthory it was 38%; with SW1736 it was 56%; in the assay on FRO, 42%.

Turning to `CS(=O)(=O)Nc1ccc2c(c1)/C(=C/c1cccs1)C(=O)N2` [FC96, reference compound], the IC50 in the assay on RI1 is 20000 nM; with HBL1, above 20000 nM; in the assay with TMD8, above 20000 nM; in the assay with U2932 it was above 20000 nM; in the assay with SUDHL10, above 20000 nM; in the assay with REC1, 15000 nM. In addition, the IC50 in the assay on Z138 and in the assay with FARAGE was above 20000 nM throughout. The “activity in lymphoma cell lines” value in [2] is “almost inactive”.

`CS(=O)(=O)Nc1ccc2c(c1)/C(=C/c1cnc[nH]1)C(=O)N2` [FC100, reference compound]: the IC50 is 5500 nM in the assay with RI1; above 20000 nM with HBL1; above 20000 nM with TMD8; above 20000 nM in the assay on U2932; 19000 nM in the assay on SUDHL10; 16000 nM with REC1. The IC50 with Z138 was 8000 nM; in the assay with FARAGE, above 20000 nM. Further, the “activity in lymphoma cell lines” value in [2] is “almost inactive”.

Take `Cc1ccc(S(=O)(=O)Nc2ccc3c(c2)/C(=C/c2ncc[nH]2)C(=O)N3)cc1` [SB19, (Z)—N-(3-((1H-imidazol-2-yl)methylene)-2-oxoindolin-5-yl)-4-methylbenzenesulfonamide]: the values for the IC50 in assay [1] (setting [4]) and in assay [1] (setting [3]) were 100 to 20000 nM and 100 to 200 nM, respectively. Also, the viability at 0.02 µM was 74% in the assay on 8505c, 81% in the assay on Nthory, 80% in the assay with SW1736 and 78% in the assay on FRO. The viability at 0.1 µM was 74% with 8505c, 61% in the assay with Nthory, 85% in the assay with SW1736 and 74% in the assay with FRO. For the same compound, the viability at 20 µM in the assay on 8505c was found to be 37%; in the assay with Nthory, 43%; in the assay on SW1736, 59%; in the assay with FRO it was 51%.

Regarding `Cc1ccc(S(=O)(=O)Nc2ccc3c(c2)C(=C2c4ccccc4-c4ccccc42)C(=O)N3)cc1` [SB21, N-(3-(9H-fluoren-9-ylidene)-2-oxoindolin-5-yl)-4-methylbenzenesulfonamide], the IC50 in assay [1] (setting [4]) fell in the range of 100 to 20000 nM. In addition, the viability at 0.02 µM came to 82% in the assay with 8505c, 91% in the assay with Nthory, 108% with SW1736 and 93% in the assay with FRO. Moreover, the viability at 0.1 µM in the assay with 8505c came out at 134%; in the assay on Nthory, 94%; with SW1736, 103%; with FRO, 114%. The viability at 20 µM in the assay with 8505c came out at 37%; in the assay with Nthory it was 15%; in the assay on SW1736, 64%; in the assay on FRO, 60%.

These data come from patent US20240350458A1, “14-3-3 PROTEIN MODULATORS AS ANTITUMOR AGENTS” (priority 2021, published 2024).
